Data: US20250041330A1, “METHOD OF TREATING OBESITY BY SELECTIVE TARGETING OF VISCERAL ADIPOSITY USING POLYCATION NANOMEDICINE” (THE TRUSTEES OF COLUMBIA UNIVERSITY IN THE CITY OF NEW YORK, priority 2022, published 2025)

Tested on: 3T3-L1 cells
Test: 3T3-L1 adipocyte differentiation (lipid staining, qPCR)
Assay type: cell-based, mouse
Conditions: NMN 20 mM with P-G3 10 μg/ml, day 0-3 of differentiation
Experimental: 3T3-L1 (ATCC CL-173) and C3H10T1/2 (CCL-226) cells were purchased from ATCC and cultured in high glucose DMEM supplemented with 10% calf serum (CS, Gemini Bio-Products 100-506) or FBS (heat-inactivated, Corning 35-011-CV), and 1× Pen Strep (Thermo Fisher). Cells were differentiated in the standard adipogenic cocktail after reaching confluence for 2 days. The cocktail contains DMEM, 10% FBS, 1 μM dexamethasone (DEX), 10 μg/ml insulin and 0.5 mM 3-isobutyl-1-methylxanthine (IBMX). 5 μM Rosiglitazone was used in the first two days to facilitate C3H10T1/2 cells' differentiation. After induction for two days, cells were maintained in a complete medium containing 2.5 μg/ml insulin until fully differentiated. P-G3 polymers or NPs (10 μg/ml) were added at indicated times, and cells were harvested during differentiation for analyses. Lipid droplets were visualized using Oil Red O staining or BODIPY staining. 3T3-L1 cells were treated with rapamycin (100 nM) from Day 4 to Day 6. […]
Total RNA from tissues or cells was extracted by using the TriZol reagent (Thermo Fisher) in combination with an RNA isolation kit from Macherey-Nagel. […] Bio-Rad CFX96 Real-Time PCR system was used to perform quantitative real-time PCR (qPCR) with goTaq qPCR Master Mix (Promega). The relative gene expression was calculated by using the ΔΔCt method with Cyclophilin A or Rpl23 as the reference gene. […]

NC(=O)c1ccc[n+]([C@@H]2O[C@H](COP(=O)([O-])O)[C@@H](O)[C@H]2O)c1 [NMN, nicotinamide mononucleotide]
effect on P-G3's pro-adipogenic effect: counteracted the pro-adipogenic effect of P-G3
